Patent US20110105472A1, “Diaminopyrimidines as crop protection agents” (Bayer CropScience AG, priority 2008, published 2011)

Experiment: logP by LC-MS, method [b], acidic range pH 2.7
Assay type: physicochemical
Settings: pH 2.7

SMILES | log p
CN1CC(=O)N(c2ccc(Nc3ncc(Br)c(NC4CCC4)n3)cc2)C1=O [Compound 164] | 1.63[b]
CC(C)(CCl)C(=O)Nc1ccc(Nc2ncc(Br)c(NC3CCC3)n2)cc1 [Compound 165] | 2.16[b]
CC(C)(CF)C(=O)Nc1cccc(Nc2ncc(Br)c(NC3CCC3)n2)c1 [Compound 166] | 2.09[b]
COCCNCc1ccc(Nc2ncc(Br)c(NC3CCC3)n2)cc1 [Compound 176] | 1.13[b]
Oc1cccc(Nc2ncc(Br)c(NC3CCC3)n2)c1 [Compound 178] | 1.5[b]
CS(=O)(=O)c1ccc(Nc2ncc(Br)c(NC3CCC3)n2)cc1 [Compound 179] | 2.32[b]
Oc1ccc(Nc2ncc(Br)c(NC3CCC3)n2)cc1F [Compound 184] | 1.5[b]
OCc1cccc(Nc2ncc(Br)c(NC3CCC3)n2)c1 [Compound 185] | 1.44[b]
CC(=O)Nc1ccc(Nc2ncc(Br)c(NC3CCC3)n2)cc1Cl [Compound 186] | 1.97[b]
O=C1NC(=O)C(c2ccc(Nc3ncc(Br)c(NC4CCC4)n3)cc2)N1 (stereo not drawn) [Compound 187] | 1.24[b]
CCSc1cccc(Nc2ncc(Cl)c(NC3CCC3)n2)c1 [Compound 188] | 3.15[b]
O=C(c1ccc(Nc2ncc(Br)c(NC3CCC3)n2)cc1)N1CCOCC1 [Compound 191] | 1.75[b]
CNC(=O)c1cccc(Nc2ncc(Br)c(NC3CCC3)n2)c1 [Compound 192] | 1.58[b]
CCOC(=O)Nc1ccc(Nc2ncc(Br)c(NC3CCC3)n2)cc1 [Compound 195] | 1.9[b]
CNC(=O)Oc1cccc(Nc2ncc(Br)c(NC3CCC3)n2)c1 [Compound 196] | 1.75[b]
CC(=O)Nc1cc(Nc2ncc(Br)c(NC3CCC3)n2)ccc1C [Compound 200] | 1.58[b]
Cc1cc(Nc2ncc(Br)c(NC3CCC3)n2)ccc1O [Compound 201] | 1.59[b]
O=C(c1ccc(Nc2ncc(Cl)c(NC3CCC3)n2)cc1)N1CCCCC1 [Compound 203] | 2.27[b]
CC(C)c1cccc(Nc2ncc(Br)c(NC3CCC3)n2)c1 [Compound 205] | 3.21[b]

SMILES | log p
O=C1N(CCCl)CCN1c1cccc(Nc2ncc(Br)c(NC3CCC3)n2)c1 [Compound 206] | 2.19[b]
COc1ccc(Nc2ncc(Br)c(NC3CCC3)n2)cc1 [Compound 208] | 1.8[b]
CC(=O)N(c1ccc(Nc2ncc(Br)c(NC3CCC3)n2)cc1)C1CC1 [Compound 209] | 1.9[b]
O=C1COCCN1c1cccc(Nc2ncc(Br)c(NC3CCC3)n2)c1 [Compound 210] | 1.53[b]
OC(c1cccc(Nc2ncc(Cl)c(NC3CCC3)n2)c1)C(F)(F)F (stereo not drawn) [Compound 218] | 2.04[b]
N#CCc1cc(Nc2ncc(Br)c(NC3CCC3)n2)ccc1F [Compound 219] | 2.2[b]
N#CCc1cccc(Nc2ncc(Br)c(NC3CCC3)n2)c1 [Compound 220] | 2.12[b]
CCc1cc(Nc2ncc(Cl)c(NC3CCC3)n2)ccc1C [Compound 222] | 2.73[b]
O=C(c1ccc(Nc2ncc(C(F)(F)F)c(NC3CCC3)n2)cc1)N1CCCCC1 [Compound 223] | 3.31[b]
Cc1cccc(Nc2ncc(Br)c(NC3CCC3)n2)c1 [Compound 224] | 2.55[b]
CC(C)c1cccc(Nc2ncc(C(F)(F)F)c(NC3CCC3)n2)c1 [Compound 225] | 4.61[b]
N#CCc1cccc(Nc2ncc(C(F)(F)F)c(NC3CCC3)n2)c1 [Compound 226] | 3.01[b]
Brc1cnc(Nc2ccccc2)nc1NC1CCC1 [Compound 229] | 2.18[b]
Cc1cccc(Nc2ncc(Cl)c(NC3CCC3)n2)c1 [Compound 231] | 2.33[b]
N#CCc1ccc(Nc2ncc(Cl)c(NC3CCC3)n2)cc1 [Compound 233] | 1.88[b]
CN1CCN(c2cccc(Nc3ncc(Cl)c(NC4CCC4)n3)c2)C1=O [Compound 237] | 1.66[b]
COc1cccc(Nc2ncc(C(F)(F)F)c(NC3CCC3)n2)c1 [Compound 238] | 3.48[b]
C=CCNC(=O)c1ccc(Nc2ncc(C(F)(F)F)c(NC3CCC3)n2)cc1 [Compound 239] | 2.79[b]
CN(C)C(=O)c1ccc(Nc2ncc(Cl)c(NC3CCC3)n2)cc1 [Compound 240] | 1.6[b]

SMILES | log p
N#CCc1cccc(Nc2ncc(Cl)c(NC3CCC3)n2)c1 [Compound 242] | 1.97[b]
CC(C)c1cccc(Nc2ncc(Cl)c(NC3CCC3)n2)c1 [Compound 243] | 3.1[b]
CC(=O)Cc1ccc(Nc2ncc(Cl)c(NC3CCC3)n2)cc1 [Compound 244] | 1.75[b]
CCN(C)C(=O)c1ccc(Nc2ncc(Cl)c(NC3CCC3)n2)cc1 [Compound 246] | 1.85[b]
O=C(c1ccc(Nc2ncc(Cl)c(NC3CCC3)n2)cc1)N1CCOCC1 [Compound 249] | 1.24[b]
CCN(CC)C(=O)c1cccc(Nc2ncc(Br)c(NC3CCC3)n2)c1 [Compound 252] | 2.26[b]
CC(=O)CCc1cccc(Nc2ncc(Br)c(NC3CCC3)n2)c1 [Compound 253] | 2.04[b]
O=S1(=O)CCCN1c1cccc(Nc2ncc(Cl)c(NC3CCC3)n2)c1 [Compound 257] | 1.74[b]
O=S1(=O)CCCN1c1cccc(Nc2ncc(Br)c(NC3CCC3)n2)c1 [Compound 258] | 2.25[b]
CNc1cccc(Nc2ncc(Cl)c(NC3CCC3)n2)c1 [Compound 260] | 1.49[b]
CS(=O)(=O)c1cccc(Nc2ncc(C(F)(F)F)c(NC3CCC3)n2)c1 [Compound 264] | 2.76[b]
CS(=O)(=O)c1cccc(Nc2ncc(Br)c(NC3CCC3)n2)c1 [Compound 265] | 2.07[b]
O=C1Cc2cc(Nc3ncc(Cl)c(NC4CCC4)n3)ccc2N1 [compound 7] | 1.33[b]
CN1C(=O)COc2ccc(Nc3ncc(Br)c(NC4CCC4)n3)cc21 [compound 14] | 1.85[b]
O=S1(=O)Cc2ccc(Nc3ncc(Br)c(NC4CCC4)n3)cc2C1 [compound 20] | 1.78[b]
O=C1NC(=O)c2cc(Nc3ncc(Br)c(NC4CCC4)n3)ccc21 [compound 22] | 2.25[b]
N#Cc1cnc(Nc2ccccc2)nc1NC1CCC1 [compound 29] | 2.92[b]
Brc1ccc(Nc2ncc(Br)c(NC3CCC3)n2)cc1 [compound 67] | 3.18[b]
O=C(Nc1ccc(Nc2ncc(Cl)c(NC3CCC3)n2)cc1)C(F)(F)F [compound 121] | 2.09[b]

Next, values leading:

log p | SMILES
1.94[b] | O=C(Nc1cccc(Nc2ncc(Br)c(NC3CCC3)n2)c1)c1ccco1 [Compound 167]
1.99[b] | CC(C)(CF)C(=O)Nc1ccc(Nc2ncc(Br)c(NC3CCC3)n2)cc1 [Compound 171]
3.19[b] | CCC(=O)c1ccc(Nc2ncc(Br)c(NC3CCC3)n2)cc1 [Compound 172]
1.62[b] | O=C1OCCN1c1ccc(Nc2ncc(Br)c(NC3CCC3)n2)cc1 [Compound 173]
1.72[b] | O=C1CCCN1c1ccc(Nc2ncc(Br)c(NC3CCC3)n2)cc1 [Compound 174]
2.09[b] | CC(=O)c1cc(Nc2ncc(Br)c(NC3CCC3)n2)ccc1O [Compound 177]
1.78[b] | O=C(NC1CC1)c1cccc(Nc2ncc(Br)c(NC3CCC3)n2)c1 [Compound 180]
2.21[b] | O=C(NCC(F)(F)F)c1cccc(Nc2ncc(Br)c(NC3CCC3)n2)c1 [Compound 181]
1.73[b] | CCNC(=O)c1cccc(Nc2ncc(Br)c(NC3CCC3)n2)c1 [Compound 190]
4.41[b] | O=C(c1ccc(Nc2ncc(Br)c(NC3CCC3)n2)cc1)C(F)(F)F [Compound 197]
3.41[b] | FC(F)Sc1ccc(Nc2ncc(Br)c(NC3CCC3)n2)cc1 [Compound 202]
1.66[b] | O=C1CCCCN1c1cccc(Nc2ncc(Cl)c(NC3CCC3)n2)c1 [Compound 204]
2.17[b] | OC(c1cccc(Nc2ncc(Br)c(NC3CCC3)n2)c1)C(F)(F)F (stereo not drawn) [Compound 214]
3.24[b] | CC(=O)c1cccc(Nc2ncc(C(F)(F)F)c(NC3CCC3)n2)c1 [Compound 227]
3.37[b] | CCSc1cccc(Nc2ncc(Br)c(NC3CCC3)n2)c1 [Compound 228]
1.91[b] | C=CCNC(=O)c1ccc(Nc2ncc(Cl)c(NC3CCC3)n2)cc1 [Compound 241]
1.57[b] | CN(C)C(=O)c1cccc(Nc2ncc(Cl)c(NC3CCC3)n2)c1 [Compound 247]

log p | SMILES
2.67[b] | CCc1cccc(Nc2ncc(Cl)c(NC3CCC3)n2)c1 [Compound 251]
3.67[b] | CC(C)(C)c1cccc(Nc2ncc(Br)c(NC3CCC3)n2)c1 [Compound 254]
1.98[b] | CC(=O)CCc1cccc(Nc2ncc(Cl)c(NC3CCC3)n2)c1 [Compound 256]
4.98[b] | CC(C)(C)c1cccc(Nc2ncc(C(F)(F)F)c(NC3CCC3)n2)c1 [Compound 259]
1.55[b] | O=c1[nH]c2ccc(Nc3ncc(Cl)c(NC4CCC4)n3)cc2o1 [compound 8]
2.59[b] | O=C1CCc2cc(Nc3ncc(Br)c(NC4CCC4)n3)ccc21 [compound 9]
2.63[b] | O=c1oc2ccc(Nc3ncc(Br)c(NC4CCC4)n3)cc2s1 [compound 11]
1.62[b] | O=C1CCC(=O)N1c1ccc(Nc2ncc(Br)c(NC3CCC3)n2)cc1 [compound 34]
1.27[b] | Oc1ccc(Nc2ncc(Br)c(NC3CCC3)n2)cc1 [compound 37]
2.06[b] | O=C(Nc1ccc(Nc2ncc(Br)c(NC3CCC3)n2)cc1)OCCCl [compound 43]
2.99[b] | Clc1ccc(Nc2ncc(Br)c(NC3CCC3)n2)cc1 [compound 69]
2.46[b] | N#Cc1cccc(Nc2ncc(Cl)c(NC3CCC3)n2)c1 [compound 107]
3.59[b] | FC(F)(F)Oc1cccc(Nc2ncc(Cl)c(NC3CCC3)n2)c1 [compound 112]
2.09[b] | CS(=O)(=O)c1ccc(Nc2ncc(Cl)c(NC3CCC3)n2)cc1 [compound 113]
2.53[b] | CN(C)S(=O)(=O)c1ccc(Nc2ncc(Cl)c(NC3CCC3)n2)cc1 [compound 114]
3.22[b] | CSc1ccc(Nc2ncc(Cl)c(NC3CCC3)n2)cc1Cl [compound 115]
